Assay results taken from paper PMC3006207, “Phosphorylation-Dependent Protein Interaction with Trypanosoma brucei 14-3-3 Proteins that Display Atypical Target Recognition” (PLoS ONE, 2010).

Experiments:
[1] = test system: heterodimeric T. brucei 14-3-3I+II; assay: NC-filter binding assay, heterodimeric T. brucei 14-3-3; design: species or system Trypanosoma brucei; settings: biotinylated peptide + streptavidine on nitrocellulose filter; GST-14-3-3 detected with α-GST antibodies
Procedure: (§1) Five µl of 1 mM biotinylated peptides, purchased from Scrum (Japan) were mixed with 15 µl of streptavidine (1 mg/ml) in the presence of 0.1% Tween20, spotted on NC-filters and dried. Filters were washed with TTBS, blocked with Protein-Free Blocking Buffer (Pierce), and then incubated with GST-14-3-3 proteins in TTBS containing 20% Protein-Free Blocking Buffer and 1 mM DTT. The filters were extensively washed four times with TTBS, and detected with anti-GST antibodies.

[2] = test system: GST-I K77E +II K56E; assay: NC-filter binding assay, mutant heterodimer; design: species or system Trypanosoma brucei
Procedure: I K77E: 5′-[…]-3′, 5′-[…]-3′; and II K56E: 5′-[…]-3′, 5′-[…]-3′. The sequences were confirmed.
as §1

[3] = test system: human 14-3-3ζ; assay: NC-filter binding assay, human 14-3-3ζ
Procedure: as §1

[4] = test system: T. brucei 14-3-3I; assay: Surface plasmon resonance (BIAcore), phosphopeptide vs 14-3-3I; format: binding, Trypanosoma brucei; settings: 200 nM GST-14-3-3I; peptide 296 RU on SA5 chip; HBS-EP buffer
Procedure: (§2) The surface plasmon resonance measurement was carried out using BIAcore 2000. A resonance unit value of 220 of biotinylated phosphopeptide pSRaf 259 (biotin-MAGGGRQRSTpSTPN) (mode 1 peptide) was coupled to a streptavidin-coated sensor chip (SA5, BIAcore). In the next step, 200 nM each of purified GST-14-3-3I, GST-14-3-3II, and GST–14-3-3τ, or 500 nM each of MBP-14-3-3I, MBP-14-3-3II, and MBP-14-3-3τ in HBS-EP buffer (BIAcore) was injected at a flow rate of 20 µl/min. A resonance unit value of 296 of biotinylated mode 2 peptide (biotin-MAGGGRLYHpSLP) was also coupled to SA5 and 200 nM each of GST-14-3-3I, GST-14-3-3II and GST-14-3-3τ in HBS-EP buffer, and was injected in the same manner.

[5] = target: T1, human 14-3-3τ (Homo sapiens, UniProt P27348); assay: Surface plasmon resonance (BIAcore), phosphopeptide vs 14-3-3τ; format: binding; settings: 200 nM GST-14-3-3τ; peptide 296 RU on SA5 chip; HBS-EP buffer
T1 construct: made in house
T1 sequence (P27348 1-245): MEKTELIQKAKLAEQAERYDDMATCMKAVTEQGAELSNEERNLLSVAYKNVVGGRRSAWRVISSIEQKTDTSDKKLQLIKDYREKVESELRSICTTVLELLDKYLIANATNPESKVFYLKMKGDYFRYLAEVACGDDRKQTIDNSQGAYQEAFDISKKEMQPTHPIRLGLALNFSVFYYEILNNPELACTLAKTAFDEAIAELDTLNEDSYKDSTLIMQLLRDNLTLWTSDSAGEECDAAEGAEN
Procedure: as §2

[6] = test system: T. brucei 14-3-3II; assay: Surface plasmon resonance (BIAcore), phosphopeptide vs 14-3-3II; format: binding, Trypanosoma brucei; settings: 200 nM GST-14-3-3II; peptide 296 RU on SA5 chip; HBS-EP buffer
Procedure: as §2

[7] = test system: human GST-14-3-3ζ; assay: Far-Western blot of immunoprecipitated V5-tagged proteins, probe GST-14-3-3ζ; format: binding; settings: protein expressed in HEK293T cells, immunoprecipitated with anti-V5
Description: (§3) We first examined whether a putative protein phosphatase 2c (PP2c) in the list interacts with T. brucei 14-3-3 proteins, since the phenotype of knockdown of 14-3-3I and/or II resembled that of okadaic acid, a potent serine/threonine phosphatase inhibitor, -treated T. brucei cells and PP2c has a putative mode 3 motif. The N-terminally V5-tagged PP2c protein was expressed in human HEK293T cells and purified by immunoprecipitation using anti-V5 monoclonal antibody (Ab). Far-WB probing with GST-14-3-3 proteins was used to detect the direct interaction. We have recently identified the heterodimeric form as the major form of T. brucei 14-3-3 proteins (unpublished data) and thus, recombinant heterodimeric GST-II +I was used as a probe. […] We further confirmed that the binding was mediated by intact mode 3 motif (Figure 2B).
Figure 2 Interaction of T. brucei PP2c with T. brucei and human 14-3-3 proteins. (A) and (B) Mammalian expression vectors pCR3 N-V5-PP2c, –PP2c S744A or -C-terminal mutants of PP2c were transiently transfected to HEK293T cells. The cell lysates were subjected to immunoprecipitation with α-V5 Ab followed by far-Western blot analyses (Far-WB) using indicated probes (upper panel). Immunoprecipitated proteins were reprobed with α-V5 Ab (lower panel). […] The filters were then incubated with indicated GST-14-3-3 proteins and detected with α-GST antibodies. […]

[8] = test system: T. brucei GST-II +I; assay: Far-Western blot of immunoprecipitated V5-tagged proteins, probe GST-II +I; format: binding, Trypanosoma brucei; settings: protein expressed in HEK293T cells, immunoprecipitated with anti-V5
Description: as §3
Figure 2 Interaction of T. brucei PP2c with T. brucei and human 14-3-3 proteins. (A) and (B) Mammalian expression vectors pCR3 N-V5-PP2c, –PP2c S744A or -C-terminal mutants of PP2c were transiently transfected to HEK293T cells. […] The filters were then incubated with indicated GST-14-3-3 proteins and detected with α-GST antibodies. […]
(§4) Figure 3 p31-SAP binds to T. brucei 14-3-3 proteins in vivo (PCF cells). […] Immunoprecipitated proteins were analyzed by Far-WB with GST-II + I as a probe (upper panel). […]

[9] = test system: endogenous 14-3-3I and II; assay: Co-immunoprecipitation with α-V5 Ab in T. brucei PCF cells; format: cell-based, Trypanosoma brucei; settings: Tet-inducible T. brucei PCF clones; Western blot with mixture of α-I and α-II Ab
Description: Figure 2 Interaction of T. brucei PP2c with T. brucei and human 14-3-3 proteins. (A) and (B) Mammalian expression vectors pCR3 N-V5-PP2c, –PP2c S744A or -C-terminal mutants of PP2c were transiently transfected to HEK293T cells. The cell lysates were subjected to immunoprecipitation with α-V5 Ab followed by far-Western blot analyses (Far-WB) using indicated probes (upper panel). Immunoprecipitated proteins were reprobed with α-V5 Ab (lower panel). (C) Modes 1-3 phosphopeptides summarized in Table 1 have far less affinity to T. brucei 14-3-3 than human 14-3-3ζ proteins. Indicated biotinylated phosphopeptides were mixed with streptavidine and spotted to nitrocellulose filters and dried. The filters were then incubated with indicated GST-14-3-3 proteins and detected with α-GST antibodies. (D) Tet-inducible T. brucei expression vector, pLew82 T7bsr-N-V5-PP2c was transfected and clones were isolated with blasticidin selection. Tet-uninduced (Tet−) or –induced (Tet +) cell lysates of the clone were subjected to immunoprecipitation followed by Western blotting using a mixture of α-I and II Ab (lower panel), and horseradish peroxidase (HRP)-labeled α-V5 Ab (upper panel).
as §4

MGGGHVSGLKRRRpSV [synthetic mode 3 phosphopeptide derived from p31-SAP]
interaction with spotted phosphopeptide [1]: clearly detected
binding of mutant 14-3-3 to p31-SAP derived peptide [2]: prevent the binding to the p31-SAP derived peptide
affinity to p31-SAP derived phosphopeptide, human 14-3-3ζ vs T. brucei 14-3-3 ([3]; NC-filter, relative to T. brucei 14-3-3): slightly higher affinity to the p31-SAP derived phosphopeptide than T. brucei 14-3-3
interaction with spotted phosphopeptide ([3]; biotinylated peptide + streptavidine on nitrocellulose filter, GST-14-3-3ζ detected with α-GST antibodies): interacts with both phosphopeptides but with the preferential binding to the mode 3 peptide derived from p31-SAP

biotin-MAGGGRLYHpSLP [mode 2 phosphopeptide, biotinylated mode 2 peptide (biotin-…pSLP)]
binding pattern of the sensorgram, mode 2 [4]: neither GST-14-3-3I nor GST–14-3-3II showed any binding
binding pattern of the sensorgram, mode 2 [5]: bound to the mode 2 phosphopeptide
binding pattern of the sensorgram, mode 2 [6]: neither GST-14-3-3I nor GST–14-3-3II showed any binding

B1: V5-tagged PP2c: N-terminally V5-tagged putative T. brucei protein phosphatase 2c (Tb927.7.4020) (protein)
chain: MYTSVRKPPLSTAKLSEKTDAAGKGNLNGVAESPTSRDGGIGSSMPYVARKPNSGDGQGRPGEVQRAGQVTYQTTNALFTGSTVPGKTKDVSTAKSSGGGDHLNNGDRPPLVGDNNEVSSPRTIKMNSSPPRRYFHRGAINCNSSENVAAVLGGSTLISGERVGSGSGYPRRVFSGPPSTRMLNQGGEEPAQKPQPPGSSRSKSGIRQLQFALNGNSSQRLLPVPPRQLCPSNPARRGGGAATVTPRCSDARRQKQDSTDPFDMTQVLNGVGTQLGLPSYCPGAESSQGSNRLRGSKPPSPSLLPLASLRSQQMPSTAGVPAPRSLSESQQLSINPSGVFGCATDCKNGLGYDFRVVASTGKSFNLPIKLTAGVGCVQGLRPTMEDEHFIRLQATTAVGQPVSLLGILDGHCGRRVAELAAKHVPDNFIAHPALGENNALAFVESIIQADRAIFHSIGKGSGGVGLSAGFGGSGGSTLIAAAVHGRMLYVACLGDARAVLYDGNTTIPMSEDHKPLNKKEHTRILQCGGFVQLGRVCGVLAVSRALGDYEFKFNGNRFISNRELMVSNVADVRQINLTDSSKFLLLACDGLWDAVQNEEATQFVRDFLSYTPDVGSSPEATKRAINNCCQKLAEFAVSRGSTDNVSVMLLFFHNVADVVASFDRASDATTSRATVTSPVSPRLFSASRGVNAGFTGMESRLAGISGGSSSGAFGGSSGAEGSSVRGAGRTKVDRGASWLTRSRSLW
modifications: left off: V5, N-terminal, kept
direct binding by Far-WB [7]: directly bound to GST-14-3-3ζ with high affinity
direct binding by Far-WB [8]: to T. brucei GST-II +I (heterodimerized recombinant proteins) with lower affinity
co-immunoprecipitation with 14-3-3I and II [9]: failed to show the interaction of 14-3-3 with PP2c
